Measurements from patent publication US20130096156A1 (priority 2010, published 2013).
Where two headings read alike, the source gives them in different places.

Tests used:
Plasmopara viticola = Plasmopara viticola / grape / leaf disc preventative; type: in vivo; settings: foliar, grape vine leaf disks, inoculated 1 day after application, assessed 6-8 days after application, read-out: inhibit fungal infestation (percent disease control compared to untreated)
Protocol: (§1) Leaf disks of various plant species (diameter 14 mm) are cut from plants grown in the greenhouse. The cut leaf disks are placed in multiwell plates (24-well format) onto water agar. Immediately after cutting the leaf disks are sprayed with a test solution.
(§2) Compounds to be tested are prepared as DMSO solutions (max. 10 mg/ml). Just before spraying the solutions are diluted to the appropriate concentrations with 0.025% Tween20. After drying, the leaf disks are inoculated with a spore suspension of the appropriate pathogenic fungus.
(§3) After an incubation time of 3-7 days after inoculation at defined conditions (temp, rH, light, etc.) according to the respective test system, the activity of the test compound is assessed as antifungal activity.
Grape vine leaf disks are placed on water agar in multiwell plates (24-well format) and sprayed with the formulated test compound diluted in water. The leaf disks are inoculated with a spore suspension of the fungus 1 day after application. The inoculated leaf disks are incubated at 19° C. and 80% rh under a light regime of 12 h light/12 h darkness in a climate cabinet and the activity of a compound is assessed as percent disease control compared to untreated when an appropriate level of disease damage appears in untreated check leaf disks (6-8 days after application).

Pythium ultimum = Pythium ultimum / liquid culture (seedling damping off); type: cell-based; settings: Globisporangium ultimum, liquid culture in PDB, 24° C., 2-3 days after application, read-out: inhibit fungal infestation (inhibition of growth determined photometrically)
Protocol: Mycelia fragments or conidia suspensions of a fungus, prepared either freshly from liquid cultures of the fungus or from cryogenic storage, are directly mixed into nutrient broth. DMSO solutions of the test compound (max. 10 mg/ml) is diluted with 0.025% Tween20 by factor 50 and 10 μl of this solution is pipetted into a microtiter plate (96-well format) and the nutrient broth containing the fungal spores/mycelia fragments is then added to give an end concentration of the tested compound. The test plates are incubated at 24° C. and 96% rH in the dark. The inhibition of fungal growth is determined photometrically after 2-6 days and antifungal activity is calculated.
Mycelia fragments and oospores of a newly grown liquid culture of the fungus are directly mixed into nutrient broth (PDB potato dextrose broth). After placing a (DMSO) solution of test compound into a microtiter plate (96-well format), the nutrient broth containing the fungal mycelia/spore mixture is added. The test plates are incubated at 24° C. and the inhibition of growth is determined photometrically 2-3 days after application.

Phytophthora infestans = assay: whole plant or invertebrate; type: in vivo; settings: in Solanum lycopersicum, foliar, read-out: inhibit fungal infestation (percent disease control compared to untreated)
[1] = test system: Blumeria graminis f. sp. tritici (Erysiphe graminis f. sp. tritici); assay: Blumeria graminis f. sp. tritici / wheat / leaf disc preventative (powdery mildew on wheat); type: in vivo; settings: foliar, wheat leaf segments cv. Kanzler, inoculated 1 day after application, assessed 6-8 days after application, read-out: inhibit fungal infestation (percent disease control compared to untreated)
Protocol: as §1, §2, §3
Wheat leaf segments cv. Kanzler are placed on agar in a multiwell plate (24-well format) and sprayed with the formulated test compound diluted in water. The leaf disks are inoculated by shaking powdery mildew infected plants above the test plates 1 day after application. The inoculated leaf disks are incubated at 20° C. and 60% rh under a light regime of 24 h darkness followed by 12 h light/12 h darkness in a climate chamber and the activity of a compound is assessed as percent disease control compared to untreated when an appropriate level of disease damage appears on untreated check leaf segments (6-8 days after application).

| SMILES | melting point | inhibition at 200 ppm (Plasmopara viticola) | inhibition at 200 ppm (Pythium ultimum) | inhibition at 200 ppm (Phytophthora infestans) | inhibition at 200 ppm [1] | inhibition at 200 ppm ([1]; in Triticum aestivum) |
| --- | --- | --- | --- | --- | --- | --- |
| CCc1cnc2c(C)cc(OC(SC)C(=O)NC(C)(C)C#CCOC)cc2c1 (stereo not shown) [Compound 20, 2-(3-Ethyl-8-methyl-quinolin-6-yloxy)-N-(4-methoxy-1,1-dimethyl-but-2-ynyl)-2-methylsulfanyl-acetamide] | 137 to 138 °C | ≥ 80% | ≥ 80% | ≥ 80% | – | – |
| CCc1cnc2c(C)cc(OC(SC)C(=O)NC(C)(C)C)cc2c1 (stereo not shown) [Compound 17, N-tert-Butyl-2-(3-ethyl-8-methyl-quinolin-6-yloxy)-2-methylsulfanyl-acetamide] | 153 to 154 °C | ≥ 80% | ≥ 80% | ≥ 80% | – | – |
| C=Cc1cnc2c(Cl)cc(OC(OC)C(=O)NC(C)C)cc2c1 (stereo not shown) [Compound 40, 2-(8-Chloro-3-vinyl-quinolin-6-yloxy)-N-iso-propyl-2-methoxy-acetamide] | 108 to 112 °C | – | – | – | ≥ 80% | – |
| CC#CC(C)(C)NC(=O)C(Oc1ccc2ncc(CC)cc2c1)SC (stereo not shown) [Compound 13, N-(1,1-Dimethyl-but-2-ynyl)-2-(3-ethyl-quinolin-6-yloxy)-2-methylsulfanyl-acetamide] | 133 to 134 °C | ≥ 80% | ≥ 80% | ≥ 80% | ≥ 80% | – |
| CSC(Oc1cc(C)c2ncc(C)cc2c1)C(=O)NC1(C)CCC1 (stereo not shown) [Compound 9, 2-(3,8-Dimethyl-quinolin-6-yloxy)-N-(1-methyl-cyclobutyl)-2-methylsulfanyl-acetamide] | 150 to 151 °C | ≥ 80% | ≥ 80% | ≥ 80% | ≥ 80% | – |
| COCC(C)(C#N)NC(=O)C(Oc1cc(C)c2ncc(C)cc2c1)SC (stereo not shown) [Compound 11, N-(1-Cyano-2-methoxy-1-methyl-ethyl)-2-(3,8-dimethyl-quinolin-6-yloxy)-2-methylsulfanyl-acetamide] | 115 to 117 °C | – | ≥ 80% | – | ≥ 80% | – |
| CCC(C)(C)NC(=O)C(Oc1ccc2ncc(C)cc2c1)SC (stereo not shown) [Compound 5, N-(1,1-Dimethyl-propyl)-2-(3-methyl-quinolin-6-yloxy)-2-methylsulfanyl-acetamide] | 103 to 104 °C | – | ≥ 80% | ≥ 80% | – | – |
| COCC#CC(C)(C)NC(=O)C(Oc1cc(C)c2ncc(C)cc2c1)SC (stereo not shown) [Compound 7, 2-(3,8-Dimethyl-quinolin-6-yloxy)-N-(4-methoxy-1,1-dimethyl-but-2-ynyl)-2-methylsulfanyl-acetamide] | 124 to 126 °C | ≥ 80% | ≥ 80% | ≥ 80% | ≥ 80% | – |
| CCc1cnc2ccc(OC(CC)C(=O)NC(C)(C#N)COC)cc2c1 (stereo not shown) [Compound 32, N-(1-Cyano-2-methoxy-1-methyl-ethyl)-2-(3-ethyl-quinolin-6-yloxy)-butyramide] | 114 to 117 °C | – | – | – | ≥ 80% | – |
| CSC(Oc1ccc2ncc(C)cc2c1)C(=O)NC(C)(C)C (stereo not shown) [Compound 1, N-tert-Butyl-2-(3-methyl-quinolin-6-yloxy)-2-methylsulfanyl-acetamide] | 126 to 127 °C | – | ≥ 80% | ≥ 80% | ≥ 80% | – |
| CO/N=C/C(C)(C)NC(=O)C(Oc1ccc2ncc(C)cc2c1)SC (stereo not shown) [Compound 12, N-(2-Methoxyimino-1,1-dimethyl-ethyl)-2-(3-methyl-quinolin-6-yloxy)-2-methylsulfanyl-acetamide] | 130 to 132 °C | ≥ 80% | ≥ 80% | ≥ 80% | ≥ 80% | – |
| CCc1cnc2c(Cl)cc(OC(SC)C(=O)NC(C)(C)C#CCOC)cc2c1 (stereo not shown) [Compound 27, 2-(8-Chloro-3-ethyl-quinolin-6-yloxy)-N-(4-methoxy-1,1-dimethyl-but-2-ynyl)-2-methylsulfanyl-acetamide] | 139 to 142 °C | ≥ 80% | – | ≥ 80% | ≥ 80% | – |
| CC#CC(C)(C)NC(=O)C(Oc1cc(Cl)c2ncc(CC)cc2c1)SC (stereo not shown) | 186 to 188 °C | – | – | – | – | – |
| CCc1cnc2ccc(OC(CC)C(=O)NC(C)(C)/C=N/OC)cc2c1 (stereo not shown) [Compound 31] | 125 to 127 °C | – | ≥ 80% | ≥ 80% | – | ≥ 80% |
| CC#CC(C)(C)NC(=O)C(Oc1cc(C)c2ncc(CC)cc2c1)SC (stereo not shown) [Compound 19, N-(1,1-Dimethyl-but-2-ynyl)-2-(3-ethyl-8-methyl-quinolin-6-yloxy)-2-methylsulfanyl-acetamide] | 166 to 167 °C | ≥ 80% | ≥ 80% | ≥ 80% | – | – |
| CCc1cnc2c(C)cc(OC(SC)C(=O)NC3CCC3)cc2c1 (stereo not shown) [Compound 21, N-Cyclobutyl-2-(3-ethyl-8-methyl-quinolin-6-yloxy)-2-methylsulfanyl-acetamide] | 157 to 158 °C | ≥ 80% | ≥ 80% | ≥ 80% | – | – |
| C=Cc1cnc2c(F)cc(OC(SC)C(=O)NC(C)CC)cc2c1 (stereo not shown) [Compound 38, N-sec-Butyl-2-(8-fluoro-3-vinyl-quinolin-6-yloxy)-2-methylsulfanyl-acetamide] | 110 to 112 °C | – | ≥ 80% | – | ≥ 80% | – |
| COCC#CC(C)(C)NC(=O)C(Oc1ccc2ncc(C)cc2c1)SC (stereo not shown) [Compound 4, N-(4-Methoxy-1,1-dimethyl-but-2-ynyl)-2-(3-methyl-quinolin-6-yloxy)-2-methylsulfanyl-acetamide] | 100 to 102 °C | – | ≥ 80% | ≥ 80% | ≥ 80% | – |
| CCc1cnc2c(C)cc(OC(SC)C(=O)NC3(C)CCC3)cc2c1 (stereo not shown) [Compound 22, 2-(3-Ethyl-8-methyl-quinolin-6-yloxy)-N-(1-methyl-cyclobutyl)-2-methylsulfanyl-acetamide] | 150 to 151 °C | ≥ 80% | ≥ 80% | ≥ 80% | – | – |
| C=Cc1cnc2c(Cl)cc(OC(SC)C(=O)NC(C)(C)C#N)cc2c1 (stereo not shown) | 138 to 141 °C | – | – | – | – | – |
| CCc1cnc2c(Cl)cc(OC(SC)C(=O)NC3CCC3)cc2c1 (stereo not shown) | 154 to 156 °C | – | – | – | – | – |
| C=Cc1cnc2c(Cl)cc(OC(CC)C(=O)NC(C)(C)C)cc2c1 (stereo not shown) | 100 to 102 °C | – | – | – | – | – |
| CCc1cnc2c(Cl)cc(OC(SC)C(=O)NC3(C)CCC3)cc2c1 (stereo not shown) [Compound 28, 2-(8-Chloro-3-ethyl-quinolin-6-yloxy)-N-(1-methyl-cyclobutyl)-2-methylsulfanyl-acetamide] | 148 to 150 °C | ≥ 80% | ≥ 80% | – | ≥ 80% | – |
| CCc1cnc2ccc(OC(CC)C(=O)NC3(C)CCC3)cc2c1 (stereo not shown) [Compound 30, 2-(3-Ethyl-quinolin-6-yloxy)-N-(1-methyl-cyclobutyl)-butyramide] | 110 to 112 °C | – | ≥ 80% | ≥ 80% | ≥ 80% | – |
| C=Cc1cnc2ccc(OC(CC)C(=O)NC(C)(C#N)COC)cc2c1 (stereo not shown) [Compound 39, N-(1-Cyano-2-methoxy-1-methyl-ethyl)-2-(3-vinyl-quinolin-6-yloxy)-butyramide] | 120 to 125 °C | – | ≥ 80% | – | ≥ 80% | – |
| CCc1cnc2ccc(OC(CC)C(=O)NC(C)(C)C#CCOC)cc2c1 (stereo not shown) [Compound 29, 2-(3-Ethyl-quinolin-6-yloxy)-N-(4-methoxy-1,1-dimethyl-but-2-ynyl)-butyramide] | 99 to 101 °C | – | ≥ 80% | ≥ 80% | ≥ 80% | – |
